Data from patent publication US8338597B2, “Pyridones useful as inhibitors of kinases” (Vertex Pharmaceuticals Incorporated, priority 2004, dated 2012).

target: T1, Itk (Homo sapiens, UniProt Q08881); test: ITK inhibition assay, radioactive-phosphate incorporation; type: biochemical; conditions: [γ-33P]ATP, SAM68 peptide, 25° C.
T1 sequence (Q08881 1-620): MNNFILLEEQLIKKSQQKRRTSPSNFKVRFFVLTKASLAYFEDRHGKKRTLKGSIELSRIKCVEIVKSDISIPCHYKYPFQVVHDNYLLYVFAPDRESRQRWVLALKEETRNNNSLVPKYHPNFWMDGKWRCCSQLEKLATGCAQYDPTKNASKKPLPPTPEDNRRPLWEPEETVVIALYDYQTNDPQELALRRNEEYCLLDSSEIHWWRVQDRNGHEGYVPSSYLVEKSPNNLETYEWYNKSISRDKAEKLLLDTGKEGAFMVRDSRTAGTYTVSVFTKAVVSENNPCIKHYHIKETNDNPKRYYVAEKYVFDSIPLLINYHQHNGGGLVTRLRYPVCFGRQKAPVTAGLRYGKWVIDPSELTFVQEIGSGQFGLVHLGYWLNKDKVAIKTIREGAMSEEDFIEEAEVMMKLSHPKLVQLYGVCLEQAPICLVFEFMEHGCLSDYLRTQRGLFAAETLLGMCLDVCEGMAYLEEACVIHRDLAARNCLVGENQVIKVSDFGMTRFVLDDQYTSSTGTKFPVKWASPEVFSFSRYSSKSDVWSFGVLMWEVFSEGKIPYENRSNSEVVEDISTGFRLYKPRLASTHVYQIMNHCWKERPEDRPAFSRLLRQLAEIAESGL
Experimental: Assays were carried out in a mixture of 20 mM MOPS (pH 7.0), 10 mM MgCl2, 0.1% BSA and 1 mM DTT. […] Assays were carried out at 25° C. in the presence of 50 nM Itk. An assay stock buffer solution was prepared containing all of the reagents listed above, with the exception of ATP and the test compound of interest.
The reaction was stopped after 10 minutes by the addition of […] 0.2M phosphoric acid+0.01% TWEEN 20. A multiscreen phosphocellulose filter 96-well plate (Millipore, Cat no. MAPHN0B50) was pretreated with 100 μL 0.2M phosphoric acid+0.01% TWEEN 20 prior to the addition of […] of the stopped assay mixture. The plate was washed with 4×200 μL 0.2M phosphoric acid+0.01% TWEEN 20.
Ki(app) data were calculated from non-linear regression analysis of the initial rate data using the Prism software package (GraphPad Prism version 3.0cx for Macintosh, GraphPad Software, San Diego Calif., USA).

SMILES	Ki
O=C(Nc1cc(-c2ccncc2)c[nH]c1=O)c1ccc(Br)cc1 [Compound I-20, 4-Bromo-N-(1,2-dihydro-2-oxo-5-(pyridin-4-yl)pyridin-3-yl)benzamide]	100 to 1000 nM
CC(C)Oc1ccc(C(=O)Nc2cc(-c3ccncc3)c[nH]c2=O)cc1 [Compound I-21]	100 to 1000 nM
O=C(Nc1cc(-c2ccncc2)c[nH]c1=O)c1ccc(Oc2ccccc2)cc1 [Compound I-22]	100 to 1000 nM
O=C(Nc1cc(-c2ccncc2)c[nH]c1=O)c1ccc(Cl)cc1 [Compound I-27]	100 to 1000 nM
CN(C)c1ccc(C(=O)Nc2cc(-c3ccncc3)c[nH]c2=O)cc1 [Compound I-45]	100 to 1000 nM
O=C(Nc1cc(-c2ccncc2)c[nH]c1=O)c1ccc(OCc2ccccc2)cc1 [Compound I-46]	100 to 1000 nM
O=C(Nc1cc(-c2ccncc2)c[nH]c1=O)c1ccc(O)cc1 [Compound I-47]	100 to 1000 nM
O=C(Nc1cc(-c2ccncc2)c[nH]c1=O)c1ccc(N2CCC(O)CC2)cc1 [Compound I-72]	100 to 1000 nM
O=C(Nc1cc(-c2ccncc2)c[nH]c1=O)c1ccc(N2CCOCC2)cc1 [Compound I-73]	100 to 1000 nM
O=C(Nc1cc(-c2ccncc2)c[nH]c1=O)c1ccc(N2CCC(N3CCCC3)CC2)cc1 [Compound I-75]	100 to 1000 nM
COCCCN1CCN(c2ccc(C(=O)Nc3cc(-c4ccncc4)c[nH]c3=O)cc2)CC1 [Compound I-77]	< 100 nM
O=C(Nc1cc(-c2ccncc2)c[nH]c1=O)c1ccc(N2CCN(CCOCCO)CC2)cc1 [Compound I-81]	< 100 nM
CNCCCN(C)Cc1ccc(C(=O)Nc2cc(-c3ccncc3)c[nH]c2=O)cc1 [Compound I-85]	100 to 1000 nM
CNCCNc1nccc(-c2c[nH]c(=O)c(NC(=O)c3ccc(C(C)(C)C)cc3)c2)n1 [II-20]	< 100 nM
CN(C)c1nccc(-c2c[nH]c(=O)c(NC(=O)c3ccc(C(C)(C)C)cc3)c2)n1 [II-21]	100 to 1000 nM
CCNc1nccc(-c2c[nH]c(=O)c(NC(=O)c3ccc(C(C)(C)C)cc3)c2)n1 [II-22]	< 100 nM
CC(C)Nc1nccc(-c2c[nH]c(=O)c(NC(=O)c3ccc(C(C)(C)C)cc3)c2)n1 [II-23]	< 100 nM
CC(C)(C)c1ccc(C(=O)Nc2cc(-c3cccc(NC4CCNCC4)n3)c[nH]c2=O)cc1 [II-32]	100 to 1000 nM

SMILES	Ki
CC(C)(C)c1ccc(C(=O)Nc2cc(-c3ccncn3)c[nH]c2=O)cc1 [II-34]	100 to 1000 nM
CC(C)(C)c1ccc(C(=O)Nc2cc(-c3cc(N[C@@H]4CCNC4)ncn3)c[nH]c2=O)cc1 [II-39]	100 to 1000 nM
O=C(Nc1cc(-c2cc(N[C@@H]3CCNC3)ncn2)c[nH]c1=O)c1ccc(N2CCCCC2)cc1 [II-45]	100 to 1000 nM
CSc1nccc(-c2c[nH]c(=O)c(NC(=O)c3ccc(N4CCCCC4)cc3)c2)n1 [II-52]	100 to 1000 nM
CNc1ccnc(-c2c[nH]c(=O)c(NC(=O)c3ccc(N4CCCCC4)cc3)c2)n1 [II-56]	100 to 1000 nM
CCOc1nccc(-c2c[nH]c(=O)c(NC(=O)c3ccc(N4CCCCC4)cc3)c2)n1 [II-57]	100 to 1000 nM
O=C(Nc1cc(-c2ccnc(NCCO)n2)c[nH]c1=O)c1ccc(N2CCCCC2)cc1 [II-59]	100 to 1000 nM
CNCCNc1cccc(-c2c[nH]c(=O)c(NC(=O)c3ccc(N4CCCCC4)cc3)c2)n1 [II-60]	100 to 1000 nM
CNc1ncc(C)c(-c2c[nH]c(=O)c(NC(=O)c3ccc(C(C)(C)C)cc3)c2)n1 [II-62]	100 to 1000 nM
CNc1nccc(-c2c[nH]c(=O)c(NC(=O)c3ccccc3)c2)n1 [II-64]	< 100 nM
CCc1cc(-c2c[nH]c(=O)c(NC(=O)c3ccc(N4CCCCC4)cc3)c2)nc(NC)n1 [II-66]	< 100 nM
CNc1cccc(-c2c[nH]c(=O)c(NC(=O)c3ccc(N4CCCCC4)cc3)c2)c1 [II-69]	100 to 1000 nM
O=C(Nc1cc(-c2cccc(NCCO)n2)c[nH]c1=O)c1ccc(N2CCCCC2)cc1 [II-70]	100 to 1000 nM
COCCNc1cccc(-c2c[nH]c(=O)c(NC(=O)c3ccc(N4CCCCC4)cc3)c2)n1 [II-71]	100 to 1000 nM
CNCCOc1nccc(-c2c[nH]c(=O)c(NC(=O)c3ccc(N4CCCCC4)cc3)c2)n1 [II-76]	100 to 1000 nM
CNCCN(C)c1cccc(-c2c[nH]c(=O)c(NC(=O)c3ccc(N4CCCCC4)cc3)c2)n1 [II-95]	100 to 1000 nM
CNc1nccc(-c2c[nH]c(=O)c(NC(=O)c3ccc(OCc4ccccc4)cc3)c2)n1 [II-97]	< 100 nM

Second part, the molecule after the results:

Ki	SMILES
100 to 1000 nM	CNc1nccc(-c2c[nH]c(=O)c(NC(=O)c3ccc(Cc4ccccc4)cc3)c2)n1 [II-98]
100 to 1000 nM	N#Cc1cncc(-c2c[nH]c(=O)c(NC(=O)c3ccc(N4CCCCC4)cc3)c2)c1 [II-99]
100 to 1000 nM	O=C(Nc1cc(-c2ccncc2)c[nH]c1=O)c1ccc(N2CCNCC2)nc1 [II-100]
100 to 1000 nM	CC(=O)NCCNc1cccc(-c2c[nH]c(=O)c(NC(=O)c3ccc(N4CCCCC4)cc3)c2)n1 [II-101]
100 to 1000 nM	O=C(Nc1cc(-c2cccc(NCCN3CCCC3)n2)c[nH]c1=O)c1ccc(N2CCCCC2)cc1 [II-104]
100 to 1000 nM	O=C(Nc1cc(-c2cccc(NCC3CCNCC3)n2)c[nH]c1=O)c1ccc(N2CCCCC2)cc1 [II-105]
< 100 nM	CNc1nccc(-c2c[nH]c(=O)c(NC(=O)c3ccc(NCCCN)cc3)c2)n1 [II-107]
100 to 1000 nM	CC(C)[C@@H](CO)Nc1cccc(-c2c[nH]c(=O)c(NC(=O)c3ccc(N4CCCCC4)cc3)c2)n1 [II-108]
100 to 1000 nM	CCN1CCCC1CNc1cccc(-c2c[nH]c(=O)c(NC(=O)c3ccc(N4CCCCC4)cc3)c2)n1 (centres unmarked) [II-120]
100 to 1000 nM	O=C(Nc1cc(-c2cccc(CO)n2)c[nH]c1=O)c1ccc(N2CCCCC2)cc1 [II-121]
100 to 1000 nM	CNc1cc(-c2c[nH]c(=O)c(NC(=O)c3ccc(N4CCCCC4)cc3)c2)nc(NC)n1 [II-123]
100 to 1000 nM	CNC(=O)c1cccc(-c2c[nH]c(=O)c(NC(=O)c3ccc(N4CCCCC4)cc3)c2)n1 [II-124]
< 100 nM	CNc1cc(-c2c[nH]c(=O)c(NC(=O)c3ccc(N4CCNCC4)cc3)c2)ncn1 [II-126]
< 100 nM	C[C@H](CN)Nc1cccc(-c2c[nH]c(=O)c(NC(=O)c3ccc(N4CCCCC4)cc3)c2)n1 [II-129]
< 100 nM	CNc1nc(C)cc(-c2c[nH]c(=O)c(NC(=O)c3ccc(N4CCCCC4)cc3)c2)n1 [II-130]
< 100 nM	CC(C)[C@@H](CO)Nc1cncc(-c2c[nH]c(=O)c(NC(=O)c3ccc(N4CCNCC4)cc3)c2)n1 [II-131]
100 to 1000 nM	CC(C)[C@H](CO)Nc1cccc(-c2c[nH]c(=O)c(NC(=O)c3ccc(N4CCCCC4)cc3)c2)n1 [II-132]
100 to 1000 nM	CC(C)(C)C(CO)Nc1cccc(-c2c[nH]c(=O)c(NC(=O)c3ccc(N4CCCCC4)cc3)c2)n1 (centres unmarked) [II-133]
< 100 nM	CNc1cccc(-c2c[nH]c(=O)c(NC(=O)c3ccc(OCCC4CCNCC4)cc3)c2)n1 [II-134]
< 100 nM	CNc1cc(-c2c[nH]c(=O)c(NC(=O)c3ccc(N4C[C@@H](C)N[C@@H](C)C4)cc3)c2)ncn1 [II-135]
< 100 nM	CNc1cc(-c2c[nH]c(=O)c(NC(=O)c3ccc(N4CCC[C@H]4CN4CCCC4)cc3)c2)ncn1 [II-136]
100 to 1000 nM	CNc1cc(-c2c[nH]c(=O)c(NC(=O)c3ccc(C4=CCNCC4)cc3)c2)ncn1 [II-137]
< 100 nM	CNc1cccc(-c2c[nH]c(=O)c(NC(=O)c3ccc(OCCN4CCNCC4)cc3)c2)n1 [II-138]
< 100 nM	CNc1cncc(-c2c[nH]c(=O)c(NC(=O)c3ccc(N4CCNCC4)cc3)c2)n1 [II-139]
